Assay results from article PMC8162437, “Copper-mediated peptide arylation selective for the N-terminus” (Chemical Science, 2020).
Starred links: 1 amine or outer side, 2 acyl side, 3 side chain; linkers in the order of their positions; H or OH if unused. Non-standard residues stand in square brackets, D forms with d. Residues, ends and D or L forms follow the SMILES beside them. X1 = CNS(=O)(=O)c1ccccc1N([C@H](C(=O)[*:2])C(C)C)[*:1]

System: Pfu aminopeptidase I
Conditions: 100 μM 5, 40 μM 5a, 0.08 μg mL−1 aminopeptidase I, 20 μM Co(OAc)2, NaOAc buffer 5 mM, pH 6.0, 95 °C, quenched with EDTA, RP-HPLC at 220 and 310 nm, internal standard 19, starting material peak area compared with 0 h
Protocol: (b) RP-HPLC analysis of the enzymatic degradation of angiotensin IV (5) and arylated angiotensin IV (5a) with aminopeptidase I. Conditions: 100 μM 5, 40 μM 5a, 0.08 μg mL^−1 aminopeptidase I, and 20 μM Co(OAc)2 in NaOAc buffer (5 mM, pH = 6.0) at 95 °C. Internal standard 19 for quantification. (c) Peptidase activity: time course for aminopeptidease I cleavage of arylated angiotensin IV (5a, orange) and angiotensin IV (5, blue).
We decided to investigate whether the charge and structural perturbation afforded by the N-arylation engendered peptide stability towards enzymatic degradation.
Enzymatic Degradation with Aminopeptidase I
Stability Test of Peptides to Aminopeptidase I
1.7 mM in 20% aq. MeCN) and Co(OAc)2 (50 µL, 200 µM in H2O) in NaOAc buffer (338 µL, 5 mM,
pH = 6.0) was added aminopeptidase I (75 µL, 0.5 mg/mL in Tris buffer (50 mM, pH = 6.0). A 50 -
µL aliquot was immediately removed after addition of the enzyme and was quenched with EDTA
(5 µL, 1 M in H2O). Internal standard 2-amino-N,N’-dimethylbenzenesulfonamide 19 was added
(1.5 μL, 4 mM in DMSO) and the 0 h timepoint was analyzed by RP-HPLC (20-60% MeCN over
28 min) at 220 nm and 310 nm. The reaction mixture was then heated to 95 °C and 50-µL aliquots
were removed and quenched with EDTA (5 µL, 1 M in H2O) at 10 min, 30 min, 1 h, and 2 h. After
quenching, the internal standard 19 was added (1.5 μL, 4 mM in DMSO) and analyzed by RP- […]

Compound | Stability towards enzymatic degradation by aminopeptidase I, after 2 h incubation (2 h) | Stability towards enzymatic degradation by aminopeptidase I, after 10 minutes (10 min)
CC[C@H](C)[C@H](NC(=O)[C@H](Cc1ccc(O)cc1)NC(=O)[C@@H](Nc1ccccc1S(=O)(=O)NC)C(C)C)C(=O)N[C@@H](Cc1c[nH]cn1)C(=O)N1CCC[C@H]1C(=O)N[C@@H](Cc1ccccc1)C(=O)O [5a] (H-[X1]YIHPF-OH) | remained stable | 
CC[C@H](C)[C@H](NC(=O)[C@H](Cc1ccc(O)cc1)NC(=O)[C@@H](N)C(C)C)C(=O)N[C@@H](Cc1cnc[nH]1)C(=O)N1CCC[C@H]1C(=O)N[C@@H](Cc1ccccc1)C(=O)O [compound 5, Angiotensin IV] |  | completely consumed
